Assay results: ChEMBL document CHEMBL5390201, “The Natural Alkaloid (-)-N-Hydroxyapiosporamide Suppresses Colorectal Tumor Progression as an NF-κB Pathway Inhibitor by Targeting the TAK1-TRAF6 Complex” (J Nat Prod, 2023)
Calls of active or inactive are those of the source. The calls are words filed in the database; no cut-off is given here.

Experiments:
[1] = test system: HCT-116; test: Induction of apoptosis in human HCT-116 cells assessed as viable cells at 5 uM incubated for 24 hrs by Annexin V-FITC/PI staining based flow cytometric analysis (reference value: 88.8%); assay type: functional; conditions: read-out: Activity
[2] = test system: Mus musculus; test: Anti-inflammatory activity in AOM/DSS-induced BALB/c mouse model inflammatory bowel disease assessed as reduction in hyperplasia at 10 mg/kg, ip pretreated with AOM for 7 days further replaced with DSS for 7 days and repeated for 2 times followed by every 2 days compound treatment for […] starting from day 50 by H and E staining based analysis; assay type: functional, organism-based; conditions: time 21.0 day
[3] = Toxicity in athymic nude BALB/c mouse xenografted with human HCT-116 cells assessed as pathological changes in spleen at 5 to 15 mg/kg, ip administered every other day and measured after 14 days by hematoxylin and eosin staining-based microscopic analysis; assay type: organism-based; conditions: in vivo, 336 h, dose 5-15 mg/kg, time 14 day
[4] = test system: HCT-116; test: Antitumor activity against human HCT-116 cells xenografted in athymic nude BALB/c mouse assessed as induction of apoptosis by measuring increase in cleaved PARP expression in tumor at 15 mg/kg, ip administered every other day and measured after 14 days by immunohistochemistry analysis; assay type: functional, organism-based; conditions: time 14.0 day
[5] = test system: HCT-116; test: Induction of apoptosis in human HCT-116 cells assessed as early apoptotic cells at 5 uM incubated for 24 hrs by Annexin V-FITC/PI staining based flow cytometric analysis (reference value: 8.06 %); assay type: functional
[6] = test system: HCT-116; test: Induction of apoptosis in human HCT-116 cells assessed as early apoptotic cells at 10 uM incubated for 24 hrs by Annexin V-FITC/PI staining based flow cytometric analysis (reference value: 7.22 %); assay type: functional
[7] = test system: HT-29; test: Induction of cell cycle arrest in human HT-29 cells assessed as accumulation of cells at G2/M phase at 1 uM by RNase/PI staining based flow cytometry analysis (reference value: 9.93 %); assay type: functional
[8] = test system: HCT-116; test: Induction of apoptosis in human HCT-116 cells assessed as necrotic cells at 5 uM incubated for 24 hrs by Annexin V-FITC/PI staining based flow cytometric analysis (reference value: 1.1 %); assay type: functional
[9] = test system: HCT-116; test: Induction of apoptosis in human HCT-116 cells assessed as late apoptotic cells at 10 uM incubated for 24 hrs by Annexin V-FITC/PI staining based flow cytometric analysis (reference value: 2.9 %); assay type: functional
[10] = target: Nuclear factor NF-kappa-B complex (Homo sapiens) (UniProt Q00653+P19838+Q04206); test: Inhibition of TNF-alpha induced NFkappaB activation in human HCT-116 cells assessed as inhibition of p65 nuclear translocation at 10 uM pretreated for 6 hrs followed by TNFalpha stimulation for 15 mins by immunohistochemical analysis; assay type: cell-based; conditions: time 6.25 hrs
Sequence of Nuclear factor NF-kappa-B complex (Homo sapiens) (P19838 whole entry, looked up): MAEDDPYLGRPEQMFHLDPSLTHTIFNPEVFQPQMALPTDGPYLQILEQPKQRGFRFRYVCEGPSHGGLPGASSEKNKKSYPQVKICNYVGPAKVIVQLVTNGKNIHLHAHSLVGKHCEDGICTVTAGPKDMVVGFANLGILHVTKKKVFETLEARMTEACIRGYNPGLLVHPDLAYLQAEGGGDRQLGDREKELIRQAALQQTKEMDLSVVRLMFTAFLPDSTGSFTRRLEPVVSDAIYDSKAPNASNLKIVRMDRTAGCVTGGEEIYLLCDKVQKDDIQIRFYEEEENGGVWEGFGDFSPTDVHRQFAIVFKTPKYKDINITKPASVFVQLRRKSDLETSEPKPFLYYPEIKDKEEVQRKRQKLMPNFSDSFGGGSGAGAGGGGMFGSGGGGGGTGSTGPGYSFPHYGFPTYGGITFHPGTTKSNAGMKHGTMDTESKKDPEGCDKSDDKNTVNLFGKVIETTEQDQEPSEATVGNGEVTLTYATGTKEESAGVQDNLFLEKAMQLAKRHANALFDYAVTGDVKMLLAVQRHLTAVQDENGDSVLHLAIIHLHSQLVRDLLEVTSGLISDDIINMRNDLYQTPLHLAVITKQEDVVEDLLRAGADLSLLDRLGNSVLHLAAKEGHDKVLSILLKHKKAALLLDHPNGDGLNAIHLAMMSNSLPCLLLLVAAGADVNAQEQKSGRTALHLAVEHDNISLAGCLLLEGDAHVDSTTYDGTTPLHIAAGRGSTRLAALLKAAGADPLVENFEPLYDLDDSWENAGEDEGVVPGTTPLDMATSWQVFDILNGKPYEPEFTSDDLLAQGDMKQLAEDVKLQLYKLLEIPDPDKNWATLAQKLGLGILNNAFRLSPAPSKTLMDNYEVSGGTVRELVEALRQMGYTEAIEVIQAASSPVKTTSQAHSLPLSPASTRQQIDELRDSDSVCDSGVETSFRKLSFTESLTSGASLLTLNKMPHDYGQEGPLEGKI
Sequence of Nuclear factor NF-kappa-B complex (Homo sapiens) (Q00653 whole entry, looked up): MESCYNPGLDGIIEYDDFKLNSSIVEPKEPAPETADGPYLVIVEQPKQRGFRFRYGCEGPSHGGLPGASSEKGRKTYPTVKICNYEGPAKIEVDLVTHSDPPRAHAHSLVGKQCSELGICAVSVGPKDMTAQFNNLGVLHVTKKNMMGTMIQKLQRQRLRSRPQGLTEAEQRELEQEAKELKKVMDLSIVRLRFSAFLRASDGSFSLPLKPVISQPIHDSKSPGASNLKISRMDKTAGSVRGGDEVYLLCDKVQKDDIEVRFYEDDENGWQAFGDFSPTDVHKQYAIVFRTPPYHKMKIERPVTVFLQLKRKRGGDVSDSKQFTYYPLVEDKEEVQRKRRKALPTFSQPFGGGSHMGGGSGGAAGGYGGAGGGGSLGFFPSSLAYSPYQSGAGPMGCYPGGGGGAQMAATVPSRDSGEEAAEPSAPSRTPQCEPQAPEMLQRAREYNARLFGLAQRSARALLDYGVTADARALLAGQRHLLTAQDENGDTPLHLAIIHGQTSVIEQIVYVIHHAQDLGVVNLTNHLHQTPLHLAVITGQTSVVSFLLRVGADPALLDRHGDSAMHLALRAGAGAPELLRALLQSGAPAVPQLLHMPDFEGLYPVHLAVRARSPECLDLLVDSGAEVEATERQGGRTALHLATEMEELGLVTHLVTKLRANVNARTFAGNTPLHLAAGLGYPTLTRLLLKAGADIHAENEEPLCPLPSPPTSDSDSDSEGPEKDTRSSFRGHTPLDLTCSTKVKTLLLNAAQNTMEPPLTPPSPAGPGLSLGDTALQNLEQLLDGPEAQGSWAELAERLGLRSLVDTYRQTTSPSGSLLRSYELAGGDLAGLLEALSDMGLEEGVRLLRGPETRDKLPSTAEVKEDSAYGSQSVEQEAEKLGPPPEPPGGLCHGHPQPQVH
Sequence of Nuclear factor NF-kappa-B complex (Homo sapiens) (Q04206 whole entry, looked up): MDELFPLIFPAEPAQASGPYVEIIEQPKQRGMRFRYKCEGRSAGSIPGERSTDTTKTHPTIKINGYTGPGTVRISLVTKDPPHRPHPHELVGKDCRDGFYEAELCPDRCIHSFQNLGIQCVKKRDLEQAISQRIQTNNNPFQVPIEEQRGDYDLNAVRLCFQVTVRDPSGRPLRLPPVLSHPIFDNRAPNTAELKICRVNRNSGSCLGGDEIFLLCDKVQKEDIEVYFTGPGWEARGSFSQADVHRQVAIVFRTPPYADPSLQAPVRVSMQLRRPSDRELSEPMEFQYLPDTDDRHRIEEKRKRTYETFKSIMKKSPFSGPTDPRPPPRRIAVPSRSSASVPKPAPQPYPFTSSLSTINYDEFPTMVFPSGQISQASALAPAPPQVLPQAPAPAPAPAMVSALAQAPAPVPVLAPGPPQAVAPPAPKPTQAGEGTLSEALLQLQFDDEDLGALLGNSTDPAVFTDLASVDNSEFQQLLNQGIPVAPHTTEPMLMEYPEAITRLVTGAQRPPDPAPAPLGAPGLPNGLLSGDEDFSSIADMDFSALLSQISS

[11] = test system: HT-29; test: Induction of cell cycle arrest in human HT-29 cells assessed as accumulation of cells at S phase at 10 uM by RNase/PI staining based flow cytometry analysis (reference value: 39.34%); assay type: functional
[12] = test system: HCT-116; test: Induction of apoptosis in human HCT-116 cells assessed as viable cells at 0.5 uM incubated for 24 hrs by Annexin V-FITC/PI staining based flow cytometric analysis (reference value: 88.8%); assay type: functional; conditions: read-out: Activity
[13] = test system: HT-29; test: Induction of autophagic flux in human HT-29 cells assessed as increase in LC3 protein expression preincubated with 3-methyladenine for 1 hr followed by compound addition and measured after 24 hrs by Western blot analysis; assay type: functional, cell-based
[14] = test system: HCT-116; test: Induction of cell cycle arrest in human HCT-116 cells assessed as accumulation of cells at G0/G1 phase at 10 uM by RNase/PI staining based flow cytometry analysis (reference value: 33.08 %); assay type: functional
[15] = test system: HT-29; test: Induction of apoptosis in human HT-29 cells assessed as viable cells at 0.25 uM incubated for 24 hrs by Annexin V-FITC/PI staining based flow cytometric analysis (reference value: 93 %); assay type: functional; conditions: read-out: Activity
[16] = test system: HCT-116; test: Induction of autophagy in human HCT-116 cells assessed as increase in LC3 protein expression at 1 to 10 uM incubated for 24 hrs by Western blot analysis; assay type: functional, cell-based; conditions: dose 1-10 µM
[17] = test system: HCT-116; test: Induction of apoptosis in human HCT-116 cells assessed as early apoptotic cells at 0.5 uM incubated for 24 hrs by Annexin V-FITC/PI staining based flow cytometric analysis (reference value: 7.22 %); assay type: functional
[18] = test system: HCT-116; test: Induction of cell cycle arrest in human HCT-116 cells assessed as accumulation of cells at G0/G1 phase at 5 uM by RNase/PI staining based flow cytometry analysis (reference value: 33.08 %); assay type: functional
[19] = test system: HT-29; test: Induction of apoptosis in human HT-29 cells assessed as necrotic cells at 5 uM incubated for 24 hrs by Annexin V-FITC/PI staining based flow cytometric analysis (reference value: 0.37 %); assay type: functional
[20] = test system: HCT-116; test: Induction of apoptosis in human HCT-116 cells assessed as necrotic cells at 5 uM preincubated with Z-VAD-FMK for 1 hr followed by compound addition and measured after 24 hrs by Annexin V-FITC/PI staining based flow cytometric analysis (reference value: 0.34 %); assay type: functional
[21] = test system: HCT-116; test: Induction of autophagic cell death in human HCT-116 cells at 1 to 10 uM pretreated with chloroquine for 1 hr followed by compound addition and measured after 24 hrs by SRB assay; assay type: functional, cell-based; conditions: dose 1-10 µM
[22] = test system: HCT-116; test: Induction of apoptosis in human HCT-116 cells assessed as viable cells at 5 uM preincubated with Z-VAD-FMK for 1 hr followed by compound addition and measured after 24 hrs by Annexin V-FITC/PI staining based flow cytometric analysis (reference value: 85.5 %); assay type: functional; conditions: read-out: Activity
[23] = test system: Mus musculus; test: Protection against LPS-induced endotoxic shock in BALB/c mouse model assessed as survival rate at 5 mg/kg, ip pretreated for 4 hrs followed by LPS administration at 20 mg/kg and measured every 2 to 4 hrs for 44 hrs relative to control; assay type: functional; conditions: time 48 hrs
[24] = test system: HT-29; test: Induction of apoptosis in human HT-29 cells assessed as viable cells at 5 uM incubated for 24 hrs by Annexin V-FITC/PI staining based flow cytometric analysis (reference value: 93 %); assay type: functional; conditions: read-out: Activity
[25] = test system: HT-29; test: Induction of cell death in human HT-29 cells at 0.5 to 10 uM pretreated with Z-VAD-FMK for 1 hr followed by compound addition and measured after 24 hrs by SRB assay; assay type: functional, cell-based; conditions: dose 0.5-10 µM
[26] = test system: HCT-116; test: Induction of apoptosis in human HCT-116 cells assessed as inhibition of caspase 8 protein expression measured for 24 hrs by Western blot analysis; assay type: functional, cell-based; conditions: dose 0-10 µM
[27] = test system: HCT-116; test: Induction of apoptosis in human HCT-116 cells assessed as inhibition of PARP protein expression measured for 24 hrs by Western blot analysis; assay type: functional, cell-based; conditions: dose 0-10 µM
[28] = test system: HT-29; test: Induction of apoptosis in human HT-29 cells assessed as viable cells at 1 uM incubated for 24 hrs by Annexin V-FITC/PI staining based flow cytometric analysis (reference value: 93 %); assay type: functional; conditions: read-out: Activity
[29] = test system: Cell membrane; test: Disruption of mitochondrial membrane potential in human HCT-116 cells at upto 10 uM measured after 24 hrs by JC-1 staining based fluorescence microscopy; assay type: subcellular
[30] = test system: HT-29; test: Induction of apoptosis in human HT-29 cells assessed as viable cells at 0.5 uM incubated for 24 hrs by Annexin V-FITC/PI staining based flow cytometric analysis (reference value: 93 %); assay type: functional; conditions: read-out: Activity

For `C[C@@H]1CC[C@H]2[C@H](C(=O)c3c(O)c([C@@]4(O)CC[C@@H](O)[C@H]5O[C@H]54)cn(O)c3=O)[C@H](C)C=C[C@@H]2C1`, the viability at 5 µM [1] was 16.5%, the Activity [2] was “Active” and the Activity [3] was “Non-Toxic”. The Activity [4] was “Active”, the Activity [5] was 5.47% and the Activity [6] was 12.3%. For the same compound, the Activity [7] was 7.08%, the Activity [8] was 2.9% and the Activity [9] was 75%. The inhibition [10] was “Active”, the Activity [11] was 26.65% and the viability at 0.5 µM [12] was 51.7%. The Activity [13] was “Active”, the Activity [14] was 46.75% and the viability at 0.25 µM [15] was 85.9%. For the same compound, the Activity [16] was “Active”, the Activity [17] was 13.2% and the Activity [18] was 44.31%. For the same compound, the Activity [19] was 0.29%, the Activity [20] was 0.39% and the Activity [21] was “inactive”. For the same compound, the viability at 5 µM [22] was 29.5%, the survival at 5 mg/kg [23] was greater than 40% and the viability at 5 µM [24] was 39.3%. The inhibition [25] was “inactive”, the Activity [26] was “Dose-Dependent Effect” and the Activity [27] was “Dose-Dependent Effect”. The viability at 1 µM [28] was 44.8%, the Activity [29] was “Active” and the viability at 0.5 µM [30] was 55.5%.
